Here are results for 28 compounds from patent US20240150339A1, “Compounds and Their Use as PDE4 Activators” (Mironid Limited, priority 2021, published 2024).

The target in this assay is T1, PDE4D5 (Homo sapiens, UniProt Q08499).
T1 construct: Using Full-Length Human PDE4 Isoforms: Long Forms PDE4D5, PDE4C3, PDE4B1 and Short Form PDE4B2; made in house; cytosol fraction of the cell lysate, not purified
T1 sequence (Q08499 1-745 isoform Q08499-6): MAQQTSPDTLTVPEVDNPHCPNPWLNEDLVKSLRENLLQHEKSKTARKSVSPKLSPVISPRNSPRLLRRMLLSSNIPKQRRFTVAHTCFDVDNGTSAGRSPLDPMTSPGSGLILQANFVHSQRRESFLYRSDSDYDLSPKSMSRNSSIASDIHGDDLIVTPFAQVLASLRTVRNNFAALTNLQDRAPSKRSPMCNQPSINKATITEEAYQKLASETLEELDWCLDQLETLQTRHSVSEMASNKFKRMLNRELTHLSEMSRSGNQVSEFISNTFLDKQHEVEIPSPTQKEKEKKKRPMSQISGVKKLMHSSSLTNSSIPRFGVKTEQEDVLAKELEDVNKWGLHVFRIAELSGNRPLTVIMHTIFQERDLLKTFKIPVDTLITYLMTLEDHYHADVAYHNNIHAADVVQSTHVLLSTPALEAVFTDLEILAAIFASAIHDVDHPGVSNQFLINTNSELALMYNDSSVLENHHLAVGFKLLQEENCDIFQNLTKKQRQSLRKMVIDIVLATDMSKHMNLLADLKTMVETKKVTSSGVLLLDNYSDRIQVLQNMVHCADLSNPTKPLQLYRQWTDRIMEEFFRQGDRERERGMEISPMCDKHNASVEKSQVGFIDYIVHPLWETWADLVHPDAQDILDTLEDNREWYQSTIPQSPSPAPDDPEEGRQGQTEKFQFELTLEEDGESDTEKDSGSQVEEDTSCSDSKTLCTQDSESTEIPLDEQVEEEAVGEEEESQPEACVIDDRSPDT
The assay can be described thus: PDE assay, activation of full-length human PDE4D5 long form ([3H]cAMP radio-assay). The format is biochemical. The note with it: 30 μM test compound; mean % increase in counts over basal activity. From the text:
Experiment 1: Measurement of Modulation of Enzyme Activity by PDE4 Long Form Activators of the Present Invention Using Full-Length Human PDE4 Isoforms: Long Forms PDE4D5, PDE4C3, PDE4B1 and Short Form PDE4B2
(Marchmont, R. J. and Houslay, M. D. Biochem. J. 187: 381-92, 1980)
For transient transfection of exogenous PDE4 long isoforms, HEK 293 cells were transfected with pcDNA3.1 or pDEST™ PDE4 expression vectors using Lipofectamine LTX/Plus reagent (Invitrogen) as outlined by the manufacturer.
Where stable cell lines were generated the clonal isolates were expanded to obtain cell lines that stably expressed the full-length human PDE4 long isoforms and the full length human PDE4B2 short isoform. These were called the HEK-PDE4D5, HEK-PDE4B1 and HEK-PDE4B2 cell lines, respectively.
HEK-PDE4D5 cells were seeded out in 100 mm plates and incubated at 37° C. in an atmosphere of 5% CO2, 95% air. Cell lysates were prepared using KHEM buffer [50 mM KCl, 10 mM EGTA, 50 mM HEPES (pH 7.2), 1.92 mM MgCl2].
To prepare the cell lysates, the 100 mm plates containing the cells were placed on ice and washed with ice-cold PBS (phosphate buffered saline, pH 7.4). KHEM buffer (500 μl) was added to the cells. Cells were then scraped off the plate and triturated using a needle (BD Microlance™ 0.8, 40 mm). The lysed cells were then centrifuged at 2000 rpm for 10 minutes to remove cell debris and the supernatant (cell lysate containing recombinant PDE4D5) was transferred to a fresh tube and kept on ice.
The cell lysate containing recombinant PDE4D5 was transferred into a centrifuge tube and placed into an ultracentrifuge (BECKMAN COULTER) and spun at high speed (100,000 g) for 30 minutes at 4° C. The cytosol fraction was then collected and its protein amount determined using a BCA protein assay.
PDE assays were performed in thin walled V-bottomed 96-well plates. The assays were performed at a final concentration of 10 mM Tris/5 mM MgCl2 μlus PDE4D5 cell lysate cytosol fraction, containing over-expressed PDE4D5, with and without test compound. The lysate/compound mix were incubated together for 15 min at room temperature on an orbital shaker prior to addition of [^3H] cAMP (final concentration 1 μM [^3H] cAMP; Perkin Elmer) to a final volume of 50 μl per reaction. The reactions were then incubated for 10 minutes at 30° C., terminated by heating for 2 min at 95° C. and allowed to cool. Snake venom (12.5 μl of 1 mg/ml; Crotalus atrox, Sigma) was then added and the plates were agitated and incubated for a further 15 minutes at 30° C. Dowex ion exchange resin (Sigma, chloride form, 200-400 mesh; 200 μl; prepared as a 1:1 Dowex: water stock, thoroughly re-suspended and diluted 2:1 with ethanol) was then added to each well and the plates incubated for 15 min at room temperature on an orbital shaker ensuring sufficient agitation for resin suspension (550 RPM). The reaction mixture was then transferred to a 96 well filter plate (Millipore; […] pore size) and filtered into a receiving 96-well plate to remove the dowex suspension. 30 μL of the filtered solution was then transferred to the wells of an Opti-plate (Perkin Elmer) 96 well assay plate and 120 μl of Microscint 40 scintillation fluid was added. The plate was then placed on an orbital shaker for 10 min at high speed (900 RPM) to mix the sample with scintillation fluid prior to quantitation using a plate based scintillation counter (Top-Count).
The % increase in counts in the presence of test compound at a particular concentration indicates the % increase in enzyme activity at that concentration.
In turn, `O=C(N[C@H]1CCCc2ccccc21)c1ccc2nc(-c3cccnc3)sc2c1` [Example 8, (S)-2-(pyridin-3-yl)-N-(1,2,3,4-tetrahydronaphthalen-1-yl)benzo[d]thiazole-6-carboxamide] registered an activation at 30 µM of 82%.
For `Cc1ccc(-c2nc3ccc(C(=O)NCc4ccccc4)cc3s2)cn1` [Example 10, N-benzyl-2-(6-methylpyridin-3-yl)benzo[d]thiazole-6-carboxamide] the value was 78%.
For `Cc1ccc(-c2nc3ccc(C(=O)NCc4ccc(Cl)cc4)cc3s2)cn1` [Example 11, N-(4-chlorobenzyl)-2-(6-methylpyridin-3-yl)benzo[d]thiazole-6-carboxamide] the value was 104%; for `Cc1ccc(-c2nc3ccc(C(=O)NCc4ccc(F)cc4)cc3s2)cn1` [Example 12, N-(4-fluorobenzyl)-2-(6-methylpyridin-3-yl)benzo[d]thiazole-6-carboxamide], 58%.
For `COc1ccc(CNC(=O)c2ccc3nc(-c4ccc(C)nc4)sc3c2)cc1` [Example 13, N-(4-methoxybenzyl)-2-(6-methylpyridin-3-yl)benzo[d]thiazole-6-carboxamide] the value was 93%; for `Cc1ccc(-c2nc3ccc(C(=O)NCc4cccc(Cl)c4)cc3s2)cn1` [Example 14, N-(3-chlorobenzyl)-2-(6-methylpyridin-3-yl)benzo[d]thiazole-6-carboxamide], 120%.
For the compound `Cc1ccc(-c2nc3ccc(C(=O)NCc4cccc(F)c4)cc3s2)cn1` [Example 15, N-(3-fluorobenzyl)-2-(6-methylpyridin-3-yl)benzo[d]thiazole-6-carboxamide], the activation at 30 µM turned out to be 99%.
In turn, `COc1cccc(CNC(=O)c2ccc3nc(-c4ccc(C)nc4)sc3c2)c1` [Example 16, N-(3-methoxybenzyl)-2-(6-methylpyridin-3-yl)benzo[d]thiazole-6-carboxamide] yielded an activation at 30 µM of 64%.
`Cc1ccc(-c2nc3ccc(C(=O)N[C@H]4CCc5ccccc54)cc3s2)cn1` [Example 17, (S)-N-(2,3-dihydro-1H-inden-1-yl)-2-(6-methylpyridin-3-yl)benzo[d]thiazole-6-carboxamide] registered an activation at 30 µM of 171%.
For `Cc1ccc(-c2nc3ccc(C(=O)N[C@@H]4CCc5ccccc54)cc3s2)cn1` [Example 18, (R)-N-(2,3-dihydro-1H-inden-1-yl)-2-(6-methylpyridin-3-yl)benzo[d]thiazole-6-carboxamide] the value was 142%; for `Cc1ccc(-c2nc3ccc(C(=O)N[C@H]4c5ccccc5C[C@H]4O)cc3s2)cn1` [Example 19, N-((1S,2R)-2-hydroxy-2,3-dihydro-1H-inden-1-yl)-2-(6-methylpyridin-3-yl)benzo[d]thiazole-6-carboxamide], 73%.
As to `Cc1ccc(-c2nc3ccc(C(=O)N[C@@H]4c5ccccc5C[C@@H]4O)cc3s2)cn1` [Example 20, N-((1R,2S)-2-hydroxy-2,3-dihydro-1H-inden-1-yl)-2-(6-methylpyridin-3-yl)benzo[d]thiazole-6-carboxamide], the activation at 30 µM was found to be 105%.
`Cc1ccc(-c2nc3ccc(C(=O)N[C@@H]4c5ccccc5C[C@H]4O)cc3s2)cn1` [Example 21, N-((1R,2R)-2-hydroxy-2,3-dihydro-1H-inden-1-yl)-2-(6-methylpyridin-3-yl)benzo[d]thiazole-6-carboxamide] came in with an activation at 30 µM of 193%.
The compound `Cc1ccc(-c2nc3ccc(C(=O)NC4CCCC4)cc3s2)cn1` [Example 22, N-cyclopentyl-2-(6-methylpyridin-3-yl)benzo[d]thiazole-6-carboxamide] had an activation at 30 µM of 39%.
As to `Cc1ccc(-c2nc3ccc(C(=O)N[C@H]4CCCc5ccccc54)cc3s2)cn1` [Example 23, (S)-2-(6-methylpyridin-3-yl)-N-(1,2,3,4-tetrahydronaphthalen-1-yl)benzo[d]thiazole-6-carboxamide], the activation at 30 µM was found to be 94%.
The compound `Cc1ccc(-c2nc3ccc(C(=O)N[C@H]4CCOc5ccccc54)cc3s2)cn1` [Example 24, (S)-N-(chroman-4-yl)-2-(6-methylpyridin-3-yl)benzo[d]thiazole-6-carboxamide] had an activation at 30 µM of 97%.
`Cc1ccc(-c2nc3ccc(C(=O)N[C@H]4CCOc5ccccc54)cc3s2)c(C)n1` [Example 26, (S)-N-(chroman-4-yl)-2-(2,6-dimethylpyridin-3-yl)benzo[d]thiazole-6-carboxamide]: the activation at 30 µM stood at 88%.
For `O=C(N[C@H]1CCOc2ccccc21)c1ccc2nc(-c3ccc(C4CC4)nc3)sc2c1` [Example 27, (S)-N-(chroman-4-yl)-2-(6-cyclopropylpyridin-3-yl)benzo[d]thiazole-6-carboxamide] the value was 154%.
For `Cc1cncc(-c2nc3ccc(C(=O)N[C@H]4c5ccccc5C[C@@H]4O)cc3s2)c1` [Example 41, N-((1S,2S)-2-hydroxy-2,3-dihydro-1H-inden-1-yl)-2-(5-methylpyridin-3-yl)benzo[d]thiazole-6-carboxamide] the value was 194%.
For the compound `Cc1cncc(-c2nc3ccc(C(=O)N[C@@H]4c5ccccc5C[C@H]4O)cc3s2)c1` [Example 42, N-((1R,2R)-2-hydroxy-2,3-dihydro-1H-inden-1-yl)-2-(5-methylpyridin-3-yl)benzo[d]thiazole-6-carboxamide], the activation at 30 µM turned out to be 138%.
For `Cc1cncc(-c2nc3ccc(C(=O)N[C@H]4CCCc5ccccc54)cc3s2)c1` [Example 44, (S)-2-(5-methylpyridin-3-yl)-N-(1,2,3,4-tetrahydronaphthalen-1-yl)benzo[d]thiazole-6-carboxamide] the value was 87%; for `Cc1cncc(-c2nc3ccc(C(=O)N[C@H]4CCOc5ccccc54)cc3s2)c1` [Example 45, (S)-N-(chroman-4-yl)-2-(5-methylpyridin-3-yl)benzo[d]thiazole-6-carboxamide], 102%; for `O=C(N[C@H]1CCOc2ccccc21)c1ccc2nc(-c3ccncc3)sc2c1` [Example 54, (S)-N-(chroman-4-yl)-2-(pyridin-4-yl)benzo[d]thiazole-6-carboxamide], 106%.
Take `Cn1cc(-c2nc3ccc(C(=O)N[C@H]4CCOc5ccccc54)cc3s2)cn1` [Example 57, (S)-N-(chroman-4-yl)-2-(1-methyl-1H-pyrazol-4-yl)benzo[d]thiazole-6-carboxamide]: the activation at 30 µM amounted to 100%.
`Cc1cnn(C)c1-c1nc2ccc(C(=O)N[C@H]3CCOc4ccccc43)cc2s1` [Example 58, (S)-N-(chroman-4-yl)-2-(1,4-dimethyl-1H-pyrazol-5-yl)benzo[d]thiazole-6-carboxamide]: the activation at 30 µM was 101%.
For `Cc1c(-c2nc3ccc(C(=O)N[C@H]4CCOc5ccccc54)cc3s2)cnn1C` [Example 60, (S)-N-(chroman-4-yl)-2-(1,5-dimethyl-1H-pyrazol-4-yl)benzo[d]thiazole-6-carboxamide] the value was 122%; for `O=C(N[C@H]1CCOc2ccccc21)c1ccc2nc(-c3cncc(CO)c3)sc2c1` [Example 62, (S)-N-(chroman-4-yl)-2-(5-(hydroxymethyl)pyridin-3-yl)benzo[d]thiazole-6-carboxamide], 133%.
Consider `O=C(N[C@H]1CCOc2ccccc21)c1ccc2nc(-c3ccc(C(F)F)nc3)sc2c1` [Example 64, (S)-N-(chroman-4-yl)-2-(6-(difluoromethyl)pyridin-3-yl)benzo[d]thiazole-6-carboxamide], for which the activation at 30 µM was found to be 64%.
